Assay results from patent publication US11207303B2, “Therapeutic agent for fibrodysplasia ossificans progressiva” (Kyoto University, priority 2015, dated 2021).

The compounds below were run on mesenchymal stem cell-like cells derived from iPS cells established from a FOP patient (ACVR1 R206H) (assay: Activin-A-induced chondrogenic differentiation of FOP patient-derived cells (sulfated glycosaminoglycan quantification)). Details: 100 ng/mL human activin-A, compound 0.01 to 100 nM, six days, P<0.0001 at 0.1-100 nM rapamycin, 1-100 nM everolimus or temsirolimus vs activin-A only.
Format: cell-based
Excerpt: According to the method of Yamanaka et. al., (Cell, 2007, 131 (5), […]), iPS cells derived from a FOP patient (referred to as “patient-derived iPS cells” in some cases hereafter) were established. […] This mutation is a mutation that replaces the 206th arginine residue into a histidine residue in the amino acid sequence of ACVR1 (the amino acid sequence as set forth in SEQ ID NO:2). In addition, with a view toward using as a control, the mutation of the ACVR1 gene described above was corrected to the normal type (the wild type) by the gene correction with a BAC (Bacterial Artificial Chromosome) knock-in vector, thus establishing corrected iPS cells which may be referred to as “gene-corrected (rescued) iPS cell clone” in some cases hereafter.
The patient-derived iPS cells were cultured on a Matrigel coated plate [manufactured by Becton, Dickinson and Company; trade name, Growth Factor Reduced (GFR) BD MATRIGEL (registered trademark)] in mTeSR1 (manufactured by STEMCELL Technologies Inc.) under a feeder-free condition for two days. […]
These mesenchymal stem cell-like cells were cultured under a condition of a chondrogenic induction medium according to the method of Umeda (Sci. Rep, 2012, 2, 455) for six days and differentiated into chondrocytes. […] Also, compounds for which their inhibitory effect against the chondrogenic differentiation were to be evaluated (concentrations of from 0.01 to 100 nM) were added simultaneously with human activin-A (referred to as “activin-A” in some cases hereafter). […] The degree of differentiation into chondrocytes was measured with a quantification kit for sulfated glycosaminoglycan (manufactured by Biocolor Inc.; trade name, Blyscan Glycosaminoglycan Assay Kit). […]

SMILES	chondrogenic differentiation (amount of sulfated glycosaminoglycan)
CO[C@H]1C[C@@H]2CC[C@@H](C)[C@@](O)(O2)C(=O)C(=O)N2CCCC[C@H]2C(=O)O[C@H]([C@H](C)C[C@@H]2CC[C@@H](OC(=O)C(C)(CO)CO)[C@H](OC)C2)CC(=O)[C@H](C)/C=C(\C)[C@@H](O)[C@@H](OC)C(=O)[C@H](C)C[C@H](C)/C=C/C=C/C=C/1C [temsirolimus]	suppressed the chondrogenic differentiation
CO[C@H]1C[C@@H]2CC[C@@H](C)[C@@](O)(O2)C(=O)C(=O)N2CCCC[C@H]2C(=O)O[C@H]([C@H](C)C[C@@H]2CC[C@@H](OP(C)(C)=O)[C@H](OC)C2)CC(=O)[C@H](C)/C=C(\C)[C@@H](O)[C@@H](OC)C(=O)[C@H](C)C[C@H](C)/C=C/C=C/C=C/1C [ridaforolimus]	suppressed the chondrogenic differentiation
CO[C@H]1C[C@@H]2CC[C@@H](C)[C@@](O)(O2)C(=O)C(=O)N2CCCC[C@H]2C(=O)O[C@H]([C@H](C)C[C@@H]2CC[C@@H](OCCO)[C@H](OC)C2)CC(=O)[C@H](C)/C=C(\C)[C@@H](O)[C@@H](OC)C(=O)[C@H](C)C[C@H](C)/C=C/C=C/C=C/1C [everolimus]	suppressed the chondrogenic differentiation
